Test results reported in patent publication US20230255906A1, “Targeting Serpin B9 in Cancer” (The Brigham and Women`s Hospital, Inc., priority 2020, published 2023).

The compounds below were run on B16 melanoma cells (assay: Caspase-3 activity assay (EnzChek Caspase-3 Assay Kit), caspase-3 induction in tumor cells). Conditions: not given.
Type: cell-based, mouse
Text: The EnzChek® Caspase-3 Assay Kit was used to detect apoptosis by assaying for increases in caspase-3 activities. The basis for the assay was rhodamine 110 bis-(N-CBZ-L-aspartyl-L-glutamyl-L-valyl-L-aspartic acid amide) (Z-DEVD-R110). This substrate is a bisamide derivative of rhodamine 110 (R110) containing DEVD peptides covalently linked to each of R110's amino groups, thereby suppressing the dye's visible absorption and its fluorescence. Upon enzymatic cleavage, the nonfluorescent bisamide substrate is converted in a two-step process first to a fluorescent monoamide and then to an even more fluorescent R110.
At least 1×10^6 cells of the lysate were used for each reaction. B16 cells were treated with compounds to induce apoptosis. A negative control was prepared by incubating cells in the absence of compounds. The cells were incubated with compounds for 24 hrs and washed in PBS. Each cell sample or control was resuspended in 50 μL of the 1×cell lysis buffer. Cells were lysed by incubating on ice for 30 minutes, and the lysed cells were centrifuged to pellet the cellular debris. 50 μL of the supernatant was transferred from each sample to individual microplate wells. 50 μL of the 1× cell lysis buffer was used as a no-enzyme control to determine the background fluorescence of the substrate. 50 μL of the 2×substrate working solution was added to each sample and control. The microplate was covered, and the samples were incubated at room temperature for approximately 30 minutes. The fluorescence was measured by a fluorescence microplate reader (excitation/emission ˜496/520 nm) using excitation and emission filters.
The ability of this small molecule inhibitor to inhibit intracellular Sb9 was then evaluated. As a marker for cell penetration, the induction of caspase-3 activity in B16 melanoma cells as a surrogate marker for increased GrB activity was measured.
The induction of caspase-3 activity in B16 melanoma cells as a surrogate marker for increased GrB activity was also measured for other small molecules (compounds of Formulas (V) and (VI) as described herein).
Note: test concentration or dose not given here.

First: CO[C@H]1CN(C)C[C@@H]1NC(=O)c1ccc2oc(-c3cccc(F)c3)nc2c1 (relative stereo) [2-(3-fluorophenyl)-N-[(3S*,4S*)-4-methoxy-1-methylpyrrolidin-3-yl]-1,3-benzoxazole-5-carboxamide]
Second: Cn1cc(CNC(=O)c2ccc3oc(-c4cccc(F)c4)nc3c2)cn1 [2-(3-fluorophenyl)-N-[(1-methyl-1H-pyrazol-4-yl)methyl]-1,3-benzoxazole-5-carboxamide]
The “Ratio of caspase-3 activity to Formula (III)” value (“Ratio of caspase-3 activity” for short) of the first is lower: 0.08936 for the first, 0.1005 for the second.

Going from CCC(=O)C1CCCN(C(=O)c2ccc3nc(-c4cccc(OC)c4)oc3c2)C1 (stereo not drawn) [1-(1-{[2-(3-methoxyphenyl)-1,3-benzoxazol-6-yl]carbonyl}-3-piperidinyl)-1-propanone] to CCCOC1CCCN(C(=O)c2ccc3nc(-c4cccc(OC)c4)oc3c2)C1 (stereo not drawn) [2-(3-methoxyphenyl)-6-[(3-propoxy-1-piperidinyl)carbonyl]-1,3-benzoxazole], the “Ratio of caspase-3 activity” value rises from 0.1346 to 0.1495.

First: O=C(c1ccc2nc(-c3ccccc3)oc2c1)N1CCC(O)CC1 [1-(2-phenyl-1,3-benzoxazole-6-carbonyl)piperidin-4-ol]
Second: COc1cccc(-c2nc3ccc(C(=O)N4CCC(N(C)C)C4)cc3o2)c1 (stereo not drawn) [1-{[2-(3-methoxyphenyl)-1,3-benzoxazol-6-yl]carbonyl}-N,N-dimethyl-3-pyrrolidinamine]
The “Ratio of caspase-3 activity” value of the first is higher: 1.327 for the first, 0.9908 for the second.

First: O=C(c1ccc2oc(-c3cccc(F)c3)nc2c1)N1CCC(O)(c2ccccc2)CC1 [1-{[2-(3-fluorophenyl)-1,3-benzoxazol-5-yl]carbonyl}-4-phenyl-4-piperidinol]
Second: CN(CCC(O)c1ccccc1)C(=O)c1ccc2oc(-c3cccc(F)c3)nc2c1 (stereo not drawn) [2-(3-fluorophenyl)-N-(3-hydroxy-3-phenylpropyl)-N-methyl-1,3-benzoxazole-5-carboxamide]
The “Ratio of caspase-3 activity” value of the first is higher: 0.1773 for the first, 0.1288 for the second.

Going from CCN(CCN(C)C)C(=O)c1cnc2c(c1)nc(-c1ccccc1Cl)n2C [2-(2-chlorophenyl)-N-[2-(dimethylamino)ethyl]-N-ethyl-3-methyl-3H-imidazo[4,5-b]pyridine-6-carboxamide] to O=C(NCCn1cccn1)c1ccc2oc(-c3cccc(F)c3)nc2c1 [2-(3-fluorophenyl)-N-[2-(1H-pyrazol-1-yl)ethyl]-1,3-benzoxazole-5-carboxamide], the “Ratio of caspase-3 activity” value falls from 1.106 to 0.4693.

Compared with COCCOC1CCN(C(=O)c2ccc3oc(-c4cccc(F)c4)nc3c2)CC1 [2-(3-fluorophenyl)-5-{[4-(2-methoxyethoxy)-1-piperidinyl]carbonyl}-1,3-benzoxazole], CN(CCN1CCCCC1)C(=O)c1ccc2oc(-c3cccc(F)c3)nc2c1 [2-(3-fluorophenyl)-N-methyl-N-[2-(1-piperidinyl)ethyl]-1,3-benzoxazole-5-carboxamide] is higher in “Ratio of caspase-3 activity” value: 0.1314 for the first, 0.1405 for the second.

Compared with O=C(NCc1cccnc1)c1ccc2oc(-c3cccc(F)c3)nc2c1 [2-(3-fluorophenyl)-N-(3-pyridinylmethyl)-1,3-benzoxazole-5-carboxamide], O=C(NCc1ccno1)c1ccc2oc(-c3cccc(F)c3)nc2c1 [2-(3-fluorophenyl)-N-(isoxazol-5-ylmethyl)-1,3-benzoxazole-5-carboxamide] is lower in “Ratio of caspase-3 activity” value: 0.1077 for the first, 0.09526 for the second.

Going from CC(NC(=O)c1ccc2oc(-c3cccc(F)c3)nc2c1)c1ncn[nH]1 (stereo not drawn) [2-(3-fluorophenyl)-N-[1-(1H-1,2,4-triazol-5-yl)ethyl]-1,3-benzoxazole-5-carboxamide] to CC(Cn1cncn1)NC(=O)c1ccc2oc(-c3cccc(F)c3)nc2c1 (stereo not drawn) [2-(3-fluorophenyl)-N-[1-methyl-2-(1H-1,2,4-triazol-1-yl)ethyl]-1,3-benzoxazole-5-carboxamide], the “Ratio of caspase-3 activity” value falls from 0.1158 to 0.1014.

First: Cn1cc(CCNC(=O)c2ccc3oc(-c4cccc(F)c4)nc3c2)cn1 [2-(3-fluorophenyl)-N-[2-(1-methyl-1H-pyrazol-4-yl)ethyl]-1,3-benzoxazole-5-carboxamide]
Second: O=C(NCCc1cn[nH]c1)c1ccc2oc(-c3cccc(F)c3)nc2c1 [2-(3-fluorophenyl)-N-[2-(1H-pyrazol-4-yl)ethyl]-1,3-benzoxazole-5-carboxamide]
The “Ratio of caspase-3 activity” value of the first is lower: 0.4475 for the first, 0.4925 for the second.

First: O=C(NCCc1ccco1)c1ccc2oc(-c3cccc(F)c3)nc2c1 [2-(3-fluorophenyl)-N-[2-(2-furyl)ethyl]-1,3-benzoxazole-5-carboxamide]
Second: Cn1cnnc1CCNC(=O)c1ccc2oc(-c3cccc(F)c3)nc2c1 [2-(3-fluorophenyl)-N-[2-(4-methyl-4H-1,2,4-triazol-3-yl)ethyl]-1,3-benzoxazole-5-carboxamide]
The “Ratio of caspase-3 activity” value of the first is lower: 0.09438 for the first, 0.7133 for the second.

Going from O=C(NCCCn1cccn1)c1ccc2oc(-c3cccc(F)c3)nc2c1 [2-(3-fluorophenyl)-N-[3-(1H-pyrazol-1-yl)propyl]-1,3-benzoxazole-5-carboxamide] to Cc1nc(CNC(=O)c2ccc3oc(-c4cccc(F)c4)nc3c2)cs1 [2-(3-fluorophenyl)-N-[(2-methyl-1,3-thiazol-4-yl)methyl]-1,3-benzoxazole-5-carboxamide], the “Ratio of caspase-3 activity” value falls from 0.9113 to 0.09788.

First: O=C(N[C@H]1CCCCNC1=O)c1ccc2oc(-c3cccc(F)c3)nc2c1 [2-(3-fluorophenyl)-N-[(3S)-2-oxo-3-azepanyl]-1,3-benzoxazole-5-carboxamide]
Second: COc1cccc(-c2nc3ccc(C(=O)NCC4CCCCO4)cc3o2)c1 (stereo not drawn) [2-(3-methoxyphenyl)-N-(tetrahydro-2H-pyran-2-ylmethyl)-1,3-benzoxazole-6-carboxamide]
The “Ratio of caspase-3 activity” value of the first is lower: 0.771 for the first, 1.425 for the second.

Compared with CC(C)N(Cc1nccn1C)C(=O)c1ccc2oc(-c3cccc(F)c3)nc2c1 [2-(3-fluorophenyl)-N-isopropyl-N-[(1-methyl-1H-imidazol-2-yl)methyl]-1,3-benzoxazole-5-carboxamide], COc1cccc(-c2nc3ccc(C(=O)NCc4nnn[nH]4)cc3o2)c1 [2-(3-methoxyphenyl)-N-(1H-tetrazol-5-ylmethyl)-1,3-benzoxazole-6-carboxamide] is lower in “Ratio of caspase-3 activity” value: 1.634 for the first, 0.3911 for the second.

Compared with COc1cccc(-c2nc3ccc(C(=O)N4CCN(Cc5cccnc5)CC4)cc3o2)c1 [2-(3-methoxyphenyl)-6-{[4-(3-pyridinylmethyl)-1-piperazinyl]carbonyl}-1,3-benzoxazole], COc1cccc(-c2nc3ccc(C(=O)NCC4CCOCC4)cc3o2)c1 [2-(3-methoxyphenyl)-N-(tetrahydro-2H-pyran-4-ylmethyl)-1,3-benzoxazole-6-carboxamide] is lower in “Ratio of caspase-3 activity” value: 0.1411 for the first, 0.09286 for the second.

First: COc1cccc(-c2nc3ccc(C(=O)NCC(F)(F)F)cc3o2)c1 [2-(3-methoxyphenyl)-N-(2,2,2-trifluoroethyl)-1,3-benzoxazole-6-carboxamide]
Second: COc1cccc(-c2nc3ccc(C(=O)NCC4CCCO4)cc3o2)c1 (stereo not drawn) [2-(3-methoxyphenyl)-N-(tetrahydro-2-furanylmethyl)-1,3-benzoxazole-6-carboxamide]
The “Ratio of caspase-3 activity” value of the first is lower: 0.09526 for the first, 0.4304 for the second.

Same assay, conditions: relative to compound of Formula (III)

Going from COc1cc(Br)c(C(=O)N2CCCC2)cc1OC [1-(2-bromo-4,5-dimethoxybenzoyl)pyrrolidine] to O=C(c1ccc2nc(C(F)(F)C(F)(F)F)oc2c1)N1CCCC1 [2-(1,1,2,2,2-pentafluoroethyl)-6-(pyrrolidine-1-carbonyl)-1,3-benzoxazole], the “Caspase-3 induction, Normalized to Formula (III) (%)” value falls from 18.4794% to −38.2832%.

Going from O=C(Cc1ccc2ocnc2c1)N1CCCC1 [2-(1,3-benzoxazol-5-yl)-1-(pyrrolidin-1-yl)ethan-1-one] to O=C(Cc1ccc2ocnc2c1)NC1CCCC1 [2-(1,3-benzoxazol-5-yl)-N-cyclopentylacetamide], the “Caspase-3 induction, Normalized to Formula (III) (%)” value falls from 3.0541% to −4.02%.

Going from COCCCNC(=O)Cc1ccc2ocnc2c1 [2-(1,3-benzoxazol-5-yl)-N-(3-methoxypropyl)acetamide] to O=C(Cc1ccc2ocnc2c1)NCc1ccccc1 [2-(1,3-benzoxazol-5-yl)-N-benzylacetamide], the “Caspase-3 induction, Normalized to Formula (III) (%)” value falls from −31.2011% to −34.4942%.

Compared with O=C(c1ccc2nc(-c3cc(Cl)cc(Cl)c3)oc2c1)N1CCCC1 [2-(3,5-dichlorophenyl)-6-(pyrrolidine-1-carbonyl)-1,3-benzoxazole], CCN(C)C(=O)c1ccc2nc(-c3cc(Cl)cc(Cl)c3)oc2c1 [2-(3,5-dichlorophenyl)-N-ethyl-N-methyl-1,3-benzoxazole-6-carboxamide] is lower in “Caspase-3 induction, Normalized to Formula (III) (%)” value: −6.23% for the first, −85.6535% for the second.

For COCCCNC(=O)c1ccc2nc(-c3cc(Cl)cc(Cl)c3)oc2c1 [2-(3,5-dichlorophenyl)-N-(3-methoxypropyl)-1,3-benzoxazole-6-carboxamide], the “Caspase-3 induction, Normalized to Formula (III) (%)” value was −31.5901%.
